Each compound was assayed on RSV A2 virus (assay: RSV CPE assay). Details: human respiratory syncytial virus, HEp-2, 120 h, read-out: RSV A2 (Hep-2 cell) EC50.

| Compound | EC50 |
| --- | --- |
| CC(C)C(=O)OCOP(=O)(OC[C@H]1O[C@@](C#N)(c2ccc3c(N)ncnn23)[C@H](OC(=O)C(C)C)[C@@H]1OC(=O)C(C)C)Oc1ccc(C(C)(C)C)cc1 (mixture of isomers) [Compound 26, (2R,3R,4R,5R)-2-(4-aminopyrrolo[2,1-f][1,2,4]triazin-7-yl)-5-((((4-tert-butylphenoxy)((isobutyryloxy)methoxy)phosphoryl)oxy)methyl)-2-cyanotetrahydrofuran-3,4-diyl bis(2-methylpropionate)] | > 1000 nM |
| CC(C)C(=O)O[C@H]1[C@@H](OC(=O)C(C)C)[C@](C#N)(c2ccc3c(N)ncnn23)O[C@@H]1COP(=O)(OCCSC(=O)C(C)(C)C)Oc1ccc(C(C)(C)C)cc1 (mixture of isomers) [Compound 27, (2R,3R,4R,5R)-2-(4-aminopyrrolo[2,1-f][1,2,4]triazin-7-yl)-5-((((4-tert-butylphenoxy)(2-(pivaloylthio)ethoxy)phosphoryl)oxy)methyl)-2-cyanotetrahydrofuran-3,4-diyl bis(2-methylpropionate)] | 200 to 500 nM |
| CC(C)OC(=O)OCO[P@@](=O)(N[C@@H](C)C(=O)OC(C)C)OC[C@H]1O[C@@](C#N)(c2ccc3c(N)ncnn23)[C@H](OC(=O)C(C)C)[C@@H]1OC(=O)C(C)C [Compound 3a, (2R,3R,4R,5R)-2-(4-aminopyrrolo[2,1-f][1,2,4]triazin-7-yl)-2-cyano-5-((((R)-(((S)-1-isopropoxy-1-oxopropan-2-yl)amino)(((isopropoxycarbonyl)oxy)methoxy)phosphoryl)oxy)methyl)tetrahydrofuran-3,4-diyl bis(2-methylpropionate)] | 200 to 500 nM |
| CC(C)OC(=O)OCO[P@](=O)(N[C@@H](C)C(=O)OC(C)C)OC[C@H]1O[C@@](C#N)(c2ccc3c(N)ncnn23)[C@H](OC(=O)C(C)C)[C@@H]1OC(=O)C(C)C [Compound 3b, (2R,3R,4R,5R)-2-(4-aminopyrrolo[2,1-f][1,2,4]triazin-7-yl)-2-cyano-5-((((S)-(((S)-1-isopropoxy-1-oxopropan-2-yl)amino)(((isopropoxycarbonyl)oxy)methoxy)phosphoryl)oxy)methyl)tetrahydrofuran-3,4-diyl bis(2-methylpropionate)] | 100 to 200 nM |
| CCC(CC)COC(=O)[C@H](C)N[P@](=O)(OCOC(=O)OC(C)C)OC[C@H]1O[C@@](C#N)(c2ccc3c(N)ncnn23)[C@H](OC(=O)C(C)C)[C@@H]1OC(=O)C(C)C [Compound 7a, (2R,3R,4R,5R)-2-(4-aminopyrrolo[2,1-f][1,2,4]triazin-7-yl)-2-cyano-5-((((R)-(((S)-1-(2-ethylbutoxy)-1-oxopropan-2-yl)amino)(((isopropoxycarbonyl)oxy)methoxy)phosphoryl)oxy)methyl)tetrahydrofuran-3,4-diyl bis(2-methylpropionate)] | 200 to 500 nM |
| CCC(CC)COC(=O)[C@H](C)N[P@@](=O)(OCOC(=O)OC(C)C)OC[C@H]1O[C@@](C#N)(c2ccc3c(N)ncnn23)[C@H](OC(=O)C(C)C)[C@@H]1OC(=O)C(C)C [Compound 7b, (2R,3R,4R,5R)-2-(4-aminopyrrolo[2,1-f][1,2,4]triazin-7-yl)-2-cyano-5-((((S)-(((S)-1-(2-ethylbutoxy)-1-oxopropan-2-yl)amino)(((isopropoxycarbonyl)oxy)methoxy)phosphoryl)oxy)methyl)tetrahydrofuran-3,4-diyl bis(2-methylpropionate)] | 100 to 200 nM |
| CCC(CC)COC(=O)[C@H](C)N[P@@](=O)(OCOC(=O)C(C)(C)C)OC[C@H]1O[C@@](C#N)(c2ccc3c(N)ncnn23)[C@H](OC(=O)C(C)C)[C@@H]1OC(=O)C(C)C [Compound 11b, (2R,3R,4R,5R)-2-(4-aminopyrrolo[2,1-f][1,2,4]triazin-7-yl)-2-cyano-5-((((S)-(((S)-1-(2-ethylbutoxy)-1-oxopropan-2-yl)amino)((pivaloyloxy)methoxy)phosphoryl)oxy)methyl)tetrahydrofuran-3,4-diyl bis(2-methylpropionate)] | 200 to 500 nM |
| CC(C)OC(=O)OCO[P@](=O)(N[C@@H](C)C(=O)OC1CCC1)OC[C@H]1O[C@@](C#N)(c2ccc3c(N)ncnn23)[C@H](OC(=O)C(C)C)[C@@H]1OC(=O)C(C)C [Compound 13b, (2R,3R,4R,5R)-2-(4-aminopyrrolo[2,1-f][1,2,4]triazin-7-yl)-2-cyano-5-((((S)-(((S)-1-cyclobutoxy-1-oxopropan-2-yl)amino)(((isopropoxycarbonyl)oxy)methoxy)phosphoryl)oxy)methyl)tetrahydrofuran-3,4-diyl bis(2-methylpropionate)] | 200 to 500 nM |
| CC(=O)O[C@H]1[C@@H](OC(C)=O)[C@](C#N)(c2ccc3c(N)ncnn23)O[C@@H]1COP(=O)(OCOC(=O)OC(C)C)OCOC(=O)OC(C)C [Compound 17, (2R,3R,4R,5R)-2-(4-aminopyrrolo[2,1-f][1,2,4]triazin-7-yl)-5-((((bis(((isopropoxycarbonyl)oxy)methoxy)phosphoryl))oxy)methyl)-2-cyanotetrahydrofuran-3,4-diyl diacetate] | 100 to 200 nM |
| CC(C)OC(=O)OCOP(=O)(OCOC(=O)OC(C)C)OC[C@H]1O[C@@](C#N)(c2ccc3c(N)ncnn23)[C@H](OC(=O)C(C)C)[C@@H]1OC(=O)C(C)C [Compound 19, (2R,3R,4R,5R)-2-(4-aminopyrrolo[2,1-f][1,2,4]triazin-7-yl)-5-((((bis(((isopropoxycarbonyl)oxy)methoxy))phosphoryl)oxy)methyl)-2-cyanotetrahydrofuran-3,4-diyl bis(2-methylpropionate)] | 200 to 500 nM |
| CC(C)OC(=O)OCOP(=O)(OCOC(=O)OC(C)C)OC[C@H]1O[C@@](C#N)(c2ccc3c(N)ncnn23)[C@H](OC(=O)C(C)(C)C)[C@@H]1OC(=O)C(C)(C)C [Compound 20, (2R,3R,4R,5R)-2-(4-aminopyrrolo[2,1-f][1,2,4]triazin-7-yl)-5-((((bis(((isopropoxycarbonyl)oxy)methoxy))phosphoryl)oxy)methyl)-2-cyanotetrahydrofuran-3,4-diyl bis(2,2-dimethylpropionate)] | > 1000 nM |
| CC(C)OC(=O)OCO[P@@](=O)(OC[C@H]1O[C@@](C#N)(c2ccc3c(N)ncnn23)[C@H](OC(=O)C(C)C)[C@@H]1OC(=O)C(C)C)Oc1ccc(C(C)(C)C)cc1 [Compound 24a, (2R,3R,4R,5R)-2-(4-aminopyrrolo[2,1-f][1,2,4]triazin-7-yl)-5-((((S)-(4-tert-butylphenoxy)(((isopropoxycarbonyl)oxy)methoxy)phosphoryl)oxy)methyl)-2-cyanotetrahydrofuran-3,4-diyl bis(2-methylpropionate)] | > 1000 nM |
| CC(C)C(=O)O[C@H]1[C@@H](OC(=O)C(C)C)[C@](C#N)(c2ccc3c(N)ncnn23)O[C@@H]1COP(=O)(OCOC(=O)C(C)(C)C)OCOC(=O)C(C)(C)C [Compound 29, (2R,3R,4R,5R)-2-(4-aminopyrrolo[2,1-f][1,2,4]triazin-7-yl)-5-((((bis(((tert-butylcarbonyl)oxy)methoxy))phosphoryl)oxy)methyl)-2-cyanotetrahydrofuran-3,4-diyl bis(2-methylpropionate)] | 500 to 1000 nM |
| CC(C)C(=O)O[C@H]1[C@@H](OC(=O)C(C)C)[C@](C#N)(c2ccc3c(N)ncnn23)O[C@@H]1COP(=O)(OCCSC(=O)C(C)(C)C)OCCSC(=O)C(C)(C)C [Compound 30, (2R,3R,4R,5R)-2-(4-aminopyrrolo[2,1-f][1,2,4]triazin-7-yl)-5-((((bis(2-(pivaloylthio)ethoxy))phosphoryl)oxy)methyl)-2-cyanotetrahydrofuran-3,4-diyl bis(2-methylpropionate)] | 200 to 500 nM |
| CCC(CC)COC(=O)[C@H](Cc1ccccc1)N[P@@](=O)(OCOC(=O)OC(C)C)OC[C@H]1O[C@@](C#N)(c2ccc3c(N)ncnn23)[C@H](OC(=O)C(C)C)[C@@H]1OC(=O)C(C)C [Compound 31b, (2R,3R,4R,5R)-2-(4-aminopyrrolo[2,1-f][1,2,4]triazin-7-yl)-2-cyano-5-((((S)-(((S)-1-(2-ethylbutoxy)-1-oxo-3-phenylpropan-2-yl)amino)(((isopropoxycarbonyl)oxy)methoxy)phosphoryl)oxy)methyl)tetrahydrofuran-3,4-diyl bis(2-methylpropionate)] | 200 to 500 nM |
| CCC(CC)COC(=O)C1(N[P@@](=O)(OCOC(=O)OC(C)C)OC[C@H]2O[C@@](C#N)(c3ccc4c(N)ncnn34)[C@H](OC(=O)C(C)C)[C@@H]2OC(=O)C(C)C)CCC1 [Compound 32b, (2R,3R,4R,5R)-2-(4-aminopyrrolo[2,1-f][1,2,4]triazin-7-yl)-2-cyano-5-((((S)-((1-((2-ethylbutoxy)carbonyl)cyclobutyl)amino)(((isopropoxycarbonyl)oxy)methoxy)phosphoryl)oxy)methyl)tetrahydrofuran-3,4-diyl bis(2-methylpropionate)] | 500 to 1000 nM |
| CCCCCOC(=O)C[C@H](N[P@](=O)(OC[C@H]1O[C@@](C#N)(c2ccc3c(N)ncnn23)[C@H](OC(=O)C(C)C)[C@@H]1OC(=O)C(C)C)Oc1ccccc1)C(=O)OCCCCC [Compound 38b, (2R,3R,4R,5R)-2-(4-aminopyrrolo[2,1-f][1,2,4]triazin-7-yl)-2-cyano-5-((((S)-(((S)-1,4-dipentyloxy-1,4-dioxobutan-2-yl)amino)(phenoxy)phosphoryl)oxy)methyl)tetrahydrofuran-3,4-diyl bis(2-methylpropionate)] | < 100 nM |
| CCCCCOC(=O)C[C@H](N[P@@](=O)(OC[C@H]1O[C@@](C#N)(c2ccc3c(N)ncnn23)[C@H](OC(=O)C(C)C)[C@@H]1OC(=O)C(C)C)Oc1ccc(C(C)(C)C)cc1)C(=O)OCCCCC [Compound 39a, (2R,3R,4R,5R)-2-(4-aminopyrrolo[2,1-f][1,2,4]triazin-7-yl)-2-cyano-5-((((R)-(((S)-1,4-dipentyloxy-1,4-dioxobutan-2-yl)amino)(4-tert-butylphenoxy)phosphoryl)oxy)methyl)tetrahydrofuran-3,4-diyl bis(2-methylpropionate)] | < 100 nM |
| CCCCCOC(=O)C[C@H](N[P@](=O)(OC[C@H]1O[C@@](C#N)(c2ccc3c(N)ncnn23)[C@H](OC(=O)C(C)C)[C@@H]1OC(=O)C(C)C)Oc1ccc(C(C)(C)C)cc1)C(=O)OCCCCC [Compound 39b, (2R,3R,4R,5R)-2-(4-aminopyrrolo[2,1-f][1,2,4]triazin-7-yl)-2-cyano-5-((((S)-(((S)-1,4-dipentyloxy-1,4-dioxobutan-2-yl)amino)(4-tert-butylphenoxy)phosphoryl)oxy)methyl)tetrahydrofuran-3,4-diyl bis(2-methylpropionate)] | < 100 nM |

— patent EP4617278A1, “NUCLEOTIDE ANALOG, AND COMPOSITION AND USE THEREOF” (priority 2022, dated 2024)
